One series relates to membrane. Put plainly: SYTOX green cell permeabilization assay. It counts as cell-based. The following applies: SYTOX green nucleic acid stain, FIGS. 1A-1F. The method, then: This example was performed to measure cell viability (i.e., cell permeabilization) by using a molecule that fluoresces when bound to DNA. The assay performed was a SYTOX™ assay green nucleic acid stain using compounds 1H and 2E. Specifically, when the membrane was perturbed, the molecule entered the cell, bound to DNA and fluoresced. The positive and negative controls were a quaternary ammonium compound (QAC; 12,3,2,3,12) and vancomycin, respectively. See the results shown in, e.g., FIGS. 1A-1F.

For series [1], the system named is red blood cells (mechanically defibrinated sheep blood). The series is described as follows: Hemolysis assay (cell lysis). It counts as cell-based. Also on record: red blood cell lysis: unit not given here. Conditions: for red blood cell lysis: 1 hour, 37° C.; for concentration at which the membrane is perturbed: stated under the cell lysis example. The method, then: The effects of the compounds described herein to lyse cells was evaluated in this example. Hemolysis assays were performed on mechanically defibrinated sheep blood (Hemostat Labs: DSB030). 1.5 mL of blood was placed into a microcentrifuge tube and centrifuged at 10,000 rpm for ten minutes. The supernatant was removed and then the cells were resuspended with 1 mL of phosphate-buffered saline (PBS). The suspension was centrifuged as previously, the supernatant was removed, and cells were resuspended two more times. The final cell suspension was diluted twentyfold with PBS. The twentyfold suspension dilution was then aliquoted into microcentrifuge tubes containing compound serially diluted in PBS. TritonX (1% by volume) served as a positive control (100% lysis marker) and sterile PBS served as a negative control (0% lysis marker). Samples were then placed in an incubator at 37° C. and shaken at 200 rpm. After 1 hour, the samples were centrifuged at 10,000 rpm for ten minutes. The absorbance of the supernatant was measured with a UV spectrometer at a 540 nm wavelength. See, e.g., Peng, Chem. Comm. 2011, 47, 4896-4898.

Series [2] deals with Streptococcus mutans wild-type strain UA159. Put plainly: MIC assay, S. mutans. It counts as cell-based. The text has this:
(§1) Streptococcus mutans wild-type strain UA159 was provided by Dr. Bettina Buttaro from Temple University Medical School, Philadelphia, Pa. Streptococcus gordonii strain DL1 and Streptococcus sanguinis strain 10904 were provided by Dr. Robert G. Quivey from University of Rochester Medical School. Streptococcus gordonii strain DL1 may be obtained from the American Type Culture Collection under accession #49818. Streptococcus sanguinis strain 10904 may be obtained from the National Collection of Type Cultures under accession #10904. Bacteria were routinely maintained on in Bacto™ Todd-Hewitt (TH) agar plates and liquid cultures were grown in Bacto™ Todd-Hewitt broth (THB). For growth of biofilms, THB was supplemented with 0.1% sucrose. Incubation was stagnant at 37° C. Bacterial strains Methicillin-Resistant Staphylococcus aureus HPV107, Staphylococcus epidermidis Fussel [NCTC 11047, R. Hugh 2466], Streptococcus sobrinus SL1 [CCM 6070, CNCTC 9/89], Enterococcus faecalis NCTC 775 [DSM 20478, JCM 8726, NCDO 581, Tissier], Pseudomonas aeruginosa [CCEB 481, MDB strain BU 277, NCIB 8295, NCPPB 1965, NCTC 10332, NRRL B-771, R. Hugh 815], Serratia marcescens BS 303 [CDC 813-60, NCIB 9155, NCTC 10211], and Acinetobacter baumannii 2208 [81, DSM 6974] were purchased from the American Type Culture Collection.
(§2) Stock solutions of compounds (10 mM) were serial diluted (200 μL, 100 μL, 50 μL, 10 μL, and 2 μL) in THB media in flat-bottom 96-well microtiter plates (total volume 100 μL). Bacterial cultures were grown in brain heart infusion or nutrient broth media to mid-exponential phase, back diluted to an OD of 0.1 and then inoculated into the 96-well plate to reach a final volume of 200 μL. Plates were inoculated at 37° C. in 5% CO2 for 20-24 hours upon which time wells were evaluated visually for bacterial growth and/or the wells' OD630 was evaluated via spectrophotometer. […] DMSO controls corresponding to each test concentration were performed. Biological triplicates were performed to confirm results.

Series [3] concerns Streptococcus gordonii strain DL1. The series is described as follows: MIC assay, S. gordonii. Type of series: cell-based. Conditions: 5% CO2, 37° C., 20-24 hours.
Text: as §1, §2

Another series relates to S. mutans biofilm. The series is described as follows: S. mutans biofilm model / crystal violet. Type of series: cell-based, Streptococcus mutans. The following applies: at concentrations of 250 μM or lower. The method, then:
Stock solutions of the compounds (10 mM) were serial diluted in THB media supplemented with 0.1% sucrose (w/v) in flat-bottom 96-well microtiter plates (total volume 100 μL). Bacterial cultures were grown to mid-exponential phase, back diluted to an OD of 0.1 and then inoculated into the 96-well plate to reach a final volume of 200 μL. Plates were incubated at 37° C. in 5% CO2 for 24 hours (early stage biofilm) upon which time wells were evaluated visually for bacterial growth. DMSO controls corresponding to each test concentration were performed. Biological triplicates were performed to confirm results. Biofilm assay was performed (above) and wells are washed with 200 μL of DI H2O and dried for 24 hours at 37° C. Dried plates were incubated for 10 minutes at room temperature with 50 μL of 1% w/v crystal violet (25% ethanol in H2O). Excess crystal violet was removed via aspiration. 200 μL of DI H2O was added to each well and aspirated (repeat until all excess crystal violet is removed). Plates were then inverted and dried at 37° C. for 3-5 hours. Crystal violet stain biofilm mass was dissolved with 200 μL of 95% ethanol, 100 μL of which was then transferred to a fresh flat-bottom 96-well plate for absorbance measurements at 595 nm. DMSO controls corresponding to each test concentration were performed. Biological triplicate was performed to confirm results. […]

Series [4] concerns Streptococcus mutans wild-type strain UA159. The following applies: original assays in aerobic environment; cited from earlier work.
The subject of series [5] is Streptococcus sanguinis strain 10904. Put plainly: MIC assay, S. sanguinis. Type of series: cell-based. Conditions: 5% CO2, 37° C., 20-24 hours.
Text: as §1, §2

The next series has as its system S. mutans. Put plainly: S. mutans MBC assay. Type of series: cell-based, Streptococcus mutans. Conditions: for MBC: Streptococcus mutans, 3-log reduction in CFU count (99.9% bacterial death); for bacteriostatic or bactericidal properties (regrow analysis, MIC vs MBC): S. mutans. On the procedure: MIC assay was performed (above) and each well diluted (log-dilution) into a new 96-well microtiter plate. Five μL from each dilution was then plated on THB agar plates and incubated for 24 hours. Colony counts were performed to determine MBC which is defined as the concentration which there is a 3-log reduction in CFU count which corresponds to 99.9% bacterial death.

The test system of series [6] is Streptococcus mutans wild-type strain UA159. The series is described as follows: MIC assay, S. mutans. The following applies: read-out: MIC S. mutans, aerobic conditions. It counts as cell-based.
The mark [7] stands for this setting: Concentration 500 μM, TritonX 100% lysis, PBS 0% lysis.
[8] abbreviates: planktonic, 5% CO2, 37° C., 20-24 hours.

Data on ten compounds can be found in patent US20200375949A1, “BISPHENOL COMPOUNDS” (THE TRUSTEES OF THE UNIVERSITY OF PENNSYLVANIA, priority 2017, published 2020).

In brackets after ≈: the same amount, converted by molar mass. Several values for one entry are separate records, joined by “and”; a condition that tells them apart may be missing. Equal entries are not always repeated. Where two headings read alike, the source gives them in different places.

Take `CC(C)(C)c1ccc(Cc2ccc(C(C)(C)C)c(O)c2)cc1O` [Compound 3N, 5,5′-methylenebis(2-(tert-butyl)phenol)]: the “concentration at which the membrane is perturbed” value (with membrane; in series [1]) was 32 µM in each case. In addition, the “red blood cell lysis” value in series [1] (Concentration 0.25 μM) was 0.13; in [1] (Concentration 0.5 μM) it was −0.02; in series [1] (Concentration 1 μM), −0.02; in series [1] (Concentration 2 μM), −0.02; in series [1] (Concentration 4 μM) it was 0.11; in series [1] (Concentration 8 μM) it was −0.03. Besides, the “red blood cell lysis” value in series [1] (Concentration 16 μM) is −0.02; in [1] (Concentration 32 μM) it was 0.02; in series [1] (Concentration 63 μM), 0.38; in series [1] (Concentration 125 μM) it was 0.43; in [1] (Concentration 250 μM) it was 0.34; in series [1] (setting [7]), 0.74. Also, 2 µM was the least that counted as inhibitory in [2] (setting [8]) (MIC).

For `C=CCc1ccc(O)c(-c2ccc(O)c(CC=C)c2)c1` [Compound A1, honokiol, reference compound], the minimum inhibitory concentration (MIC) (usually the lowest concentration found to suppress growth) is 125 µM (≈ 33.3 µg/mL) in [3]; 66.6 µg/mL in series [2] (5% CO2-supplemented environment); 250 µM in [2] (setting [8]); 125 µM (≈ 33.3 µg/mL) in series [5]; 125 µM and 33.3 µg/mL in [6]. Besides, in the series with S. mutans biofilm, the “inhibition of biofilm growth” value is “unable to inhibit biofilm growth”. Besides, the “MIC S. mutans, literature value” in series [4] was 10 µg/mL (≈ 37.5 µM). Further, the bactericidal activity entry in the series with S. mutans (at concentrations of 250 μM or lower) is on record as “not bactericidal”.

Take `Cc1cc(O)c(C)c(O)c1-c1cc(C(C)(C)C)c(O)c(C(C)(C)C)c1` [Compound A2, 3′,5′-Di-tert-3,6-methyl-[1,1′-biphenyl]-2,4,4′-triol]: the MIC in series [3] stood at 32 µM (≈ 11 µg/mL); in series [2] (setting [8]), 32 µM; in [5], 32 µM (≈ 11 µg/mL). The minimum bactericidal concentration (MBC) (in general, the lowest tested concentration that kills the bacteria rather than only halting them) in the series on S. mutans was 63 µM (≈ 21.6 µg/mL).

Turning to `Cc1cc(-c2cc(C)c(O)c(C(C)(C)C)c2)c(C(C)C)cc1O` [Compound A7], the MIC in series [3] was found to be 16 µM (≈ 5 µg/mL); in series [2] (setting [8]) it was 32 µM; in series [5], 32 µM (≈ 10 µg/mL). Also, the MBC in the series on S. mutans was found to be 32 µM (≈ 10 µg/mL).

For the compound `CC(C)(C)c1cc(-c2c(O)ccc3cc(Br)ccc23)cc(C(C)(C)C)c1O` [Compound B5, 6-Bromo-1-(3,5-di-tert-butyl-4-hydroxyphenyl)naphthalen-2-ol], the MIC was determined as 16 µM (≈ 6.84 µg/mL) in [3], 8 µM in [2] (setting [8]) and 4 µM (≈ 1.71 µg/mL) in [5]. Besides, in the series with S. mutans, the “bacteriostatic or bactericidal properties (regrow analysis, MIC vs MBC)” value is on record as “bacteriostatic”. Moreover, in the series with S. mutans, the minimal bactericidal concentration (MBC) was 125 µM (≈ 53.4 µg/mL).

For `C=CCc1cc(-c2c(O)ccc3cc(Br)ccc23)cc(C(C)(C)C)c1O` [Compound B8, 1-(3-Allyl-5-(tert-butyl)-4-hydroxyphenyl)-6-bromonaphthalen-2-ol], the values for the minimum inhibitory concentration (MIC) in series [3], in series [2] (setting [8]) and in series [5] were 16 µM (≈ 6.58 µg/mL), 16 µM and 8 µM (≈ 3.29 µg/mL), respectively. Further, the “bacteriostatic or bactericidal properties (regrow analysis, MIC vs MBC)” value with S. mutans is recorded as “bactericidal”. This compound also came in with an MBC against S. mutans of 32 µM (≈ 13.2 µg/mL).

With `Cc1cc(-c2c(O)ccc3ccccc23)cc(C(C)(C)C)c1O` [Compound B9, 1-(3-(tert-Butyl)-4-hydroxy-5-methylphenyl)naphthalen-2-ol], the values for the MIC in [3], in series [2] (setting [8]) and in series [5] were 32 µM (≈ 9.8 µg/mL), 32 µM and 32 µM (≈ 9.8 µg/mL), respectively. In the series with S. mutans, the MBC is 32 µM (≈ 9.8 µg/mL).

Turning to `COC(=O)c1cc2c(-c3cc(C(C)C)c(O)c(C(C)C)c3)c(O)ccc2cc1O` [Compound B10, Methyl 3,7-dihydroxy-8-(4-hydroxy-3,5-diisopropylphenyl)-2-naphthoate], the values for the MIC in series [3], in series [2] (setting [8]) and in [5] were 8 µM (≈ 3.16 µg/mL), 32 µM and 8 µM (≈ 3.16 µg/mL), respectively. For the same compound, the MBC against S. mutans stood at 32 µM (≈ 12.6 µg/mL).

Take `CCCc1cc(-c2c(O)ccc3cc(OC)ccc23)cc(C(C)(C)C)c1O` [Compound B11, 1-(3-(tert-Butyl)-4-hydroxy-5-propylphenyl)-6-methoxynaphthalen-2-ol]: the MIC stood at 16 µM (≈ 5.83 µg/mL) in series [3], 16 µM in series [2] (setting [8]) and 8 µM (≈ 2.92 µg/mL) in series [5]. Also, in the series with S. mutans, the “bacteriostatic or bactericidal properties (regrow analysis, MIC vs MBC)” value is “bactericidal”. The compound also gave an MBC against S. mutans of 63 µM (≈ 23 µg/mL).

On to `CC(C)(C)c1ccc(CCc2ccc(C(C)(C)C)c(O)c2)cc1O` [Compound C2, 5,5′-(Ethane-1,2-diyl)bis(2-(tert-butyl)phenol)], for which the MIC in series [3] amounted to 1.25 µM (≈ 0.408 µg/mL); in [2] (setting [8]) it was 2 µM; in series [5], 2.5 µM (≈ 0.816 µg/mL). Further, the “concentration at which the membrane is perturbed” value (with membrane; in series [1]) was 32 µM each time. The “lysis of blood cells” value in series [1] is given as “lyses blood cells at high concentrations”. Besides, the “red blood cell lysis” value is given as 0.02 in series [1] (Concentration 0.25 μM); 0.01 in [1] (Concentration 0.5 μM); −0.02 in [1] (Concentration 1 μM); −0.02 in series [1] (Concentration 2 μM); −0.01 in [1] (Concentration 4 μM); −0.03 in series [1] (Concentration 8 μM). For the same compound, the “red blood cell lysis” value in series [1] (Concentration 16 μM) was −0.03; in series [1] (Concentration 32 μM), 0.07; in series [1] (Concentration 63 μM), 0.29; in series [1] (Concentration 125 μM) it was 0.43; in series [1] (Concentration 250 μM), 0.70; in series [1] (setting [7]), 0.48. Further, in the series with S. mutans, the “bacteriostatic or bactericidal properties (regrow analysis, MIC vs MBC)” value was “bactericidal”. This compound also came in with an MBC with S. mutans of 4 µM (≈ 1.31 µg/mL).
